Data: US12059413B2, “Methods of inhibiting viruses using compositions targeting TSG101-ubiquitin interaction” (The Research Foundation for the State University of New York, priority 2016, dated 2024)

Assays:
Assay type in all cases: cell-based
cells = assay: Cytotoxicity / cell metabolic activity on exposure to N16
Description: We investigated the specificity of the inhibitory effect. F15 and N16 impaired Tsg101-co-localization with Gag on the plasma membrane (c.f, FIG. 19) and reduced release of the VLPs assembled by Gag (c.f, FIG. 15). […] Cell metabolic activity was not affected after exposure to N16 for 24 hr; it decreased by less than 10% after exposure to N16 for 48 hr (not shown). Tsg101 localization to the midbody of dividing cells requires its recruitment to that location by centrosomal protein of 55k (CEP55) which binds a site in the Tsg101 Pro-rich domain (aa 154-166) (Lee, H. H., et al. (2008)). Finding this function unaffected at a concentration inhibitory to virus budding is consistent with the lack of any indication that cell division was reduced in the presence of N16. The lack of effect on this function also supports the specificity of N16 targeting as limited to functions of the Tsg101 UEV domain. EGF ligand-binding to EGFR on the cell surface signals receptor internalization, ubiquitination, and sequential ESCRT 0-, I-, II- and III-mediated transport to degradative compartments, ultimately lowering the EGFR steady-state level (Tomas, A., et al. (2014)). This trafficking requires the engagement of the P(T/S)AP-binding pocket in the Tsg101 UEV domain with the PSAP motif in hepatocyte growth factor-regulated tyrosine kinase substrate (Hrs), a component of ESCRT-0 (Lu, Q., et al. (2003)). The down-regulation function remained unimpaired at concentrations well above 50 JAM.

HIV-1 NL4-3 [1] = assay: Specific virus infectivity by MAGI assay; details: higher concentrations required
Description: (§1) FIG. 15A-D. N16 inhibits HIV-1 NL4-3 and Gag VLP production. A) Effect on virus production. Virus particles from N16-treated 293T cells transfected with pNL4-3 as determined by ELISA assay. Top, The compound was added 6 hr prior to DNA transfection and tissue culture media was harvested 24 hr later. Bottom, The compound was added at the indicated concentration 24 hr after DNA transfection and tissue culture media was harvested 24 hr later. Assay values were normalized to that of the DMSO carrier control. B) Effect on virus infectivity. Infectious viral particles per ng p24 as determined by MAGI assay. C) Left, Electron microscopy of particles at cell surface at 24 hr post-N16 addition; Right, Quantitative analysis of budding morphologies. […] Bottom, Quantitative analysis. […]
For production of virus particles, 293T cells were transfected with pNL4-3-ΔEnv and pIIIB Env3-1 plasmids and for virus-like particles (VLP), with pCMV-Gag-HA as previously described (Watanabe et al. (2013)). For specific infectivity, media-associated p24 was determined by ELISA (Immunodiagnostics, Inc.) and equivalent amounts of p24 were used to infect HeLa-CD4+-LTR-3 gal cells for infectivity measurement by the multinuclear activation of a galactosidase indicator (MAGI) assay. […] Virus particle release efficiency was calculated [VLP signal intensity/(VLP signal intensity+cell lysate signal intensity)]. […]

HIV-1 NL4-3 [2] = assay: Spreading infection of Jurkat cells infected with NL4-3, p24 capture ELISA
Description: FIG. 16A-B. N16 inhibition of HIV-1 transmission in a spreading infection in Jurkat cells. A) Schematic diagram summarizing experimental protocol. Jurkat cells (triplicate samples of 5×10^5/well) were incubated for 2 hr with HIV-1 NL4-3 in treatment media containing 50 μM N16 or control vehicle (DMSO). At the end of this period, unbound virus was removed by centrifugation and the cells washed once, resuspended in fresh media and returned to the 37° C. incubator. For the next 15 days, tissue culture media was removed daily by centrifugation and saved for virus measurement by p24 capture ELISA and cells were replenished with fresh control or N16 treatment media. B) ELISA readings. In control media (containing DMSO), virus replication peaked at day 11; in the presence of N16, production peaked at 13 days. […] Cells were monitoring periodically for viability by Trypan Blue assay. To test their ability to produce virus after this sustained exposure, at day 15 the N16-treated cells were washed, fresh media without inhibitor was added and the cells were incubated 4 days longer (to day 19). The supernatant was collected, the cells were washed again and then incubated for another 4 days in media with inhibitor, adding fresh inhibitor daily. The final supernatant was collected on day 23. […] Thus, the cells maintained the ability to produce virus and the virus in the population at 15 days was essentially as susceptible to N16 as the initial virus population used to infect the Jurkat cells. Number of independent trials: n=2.
To investigate whether the ability to bind the UEV domain could affect Tsg101's function during HIV's budding process, viral particle production was tested (FIG. 15). […] Addition of N16 at 24 hr post-transfection had little effect on budding even at higher concentrations (FIG. 15A, bottom). […] After 15 days, virus production was reduced by 15-fold. Cell viability was maintained under these conditions of sustained drug exposure as indicated by trypan blue viability assay every 3rd day. […] Following the re-addition of N16 to the media, virus titer at this point was reduced 50-fold 4 days indicating maintenance of drug susceptibility.

HIV-1 NL4-3 [3] = assay: Viral particle production from 293T cells transfected with pNL4-3, p24 ELISA
Description: as §1, with “morphologies. Cells expressing WT- or P7L-NL4-3 were exposed to DMSO carrier or 50 μM N16. Arrows indicate emerging ‘Early’ buds. D) Effects on Gag VLP production. Top, Western blot analysis. Cells treated at the indicated concentration were transfected with DNA encoding Gag-HA. At the end of the treatment period, tissue culture media was removed for VLP isolation.” for “morphologies.”
For production of virus particles, 293T cells were transfected with pNL4-3-ΔEnv and pIIIB Env3-1 plasmids and for virus-like particles (VLP), with pCMV-Gag-HA as previously described (Watanabe et al. (2013)). For specific infectivity, media-associated p24 was determined by ELISA (Immunodiagnostics, Inc.) and equivalent amounts of p24 were used to infect HeLa-CD4+-LTR-3 gal cells for infectivity measurement by the multinuclear activation of a galactosidase indicator (MAGI) assay. […] For cell-associated Gag analysis, cell pellets were lysed with either Triton X-100 or RIPA buffer with complete mini protease inhibitor cocktail (Roche) and analyzed by Western blotting. Protein bands were visualized using an infrared-based imaging system (Odyssey, LI-COR Biotechnology) and band intensities measured using the Li-Cor Odyssey software version 2.1.15. Virus particle release efficiency was calculated [VLP signal intensity/(VLP signal intensity+cell lysate signal intensity)]. […]

With `COc1ccc2[nH]c([S+]([O-])Cc3ncc(C)c(OC)c3C)nc2n1` (stereo not drawn) [N16, tenatoprazole] the cytotoxicity (cells; 50 μM, 24 hr exposure) was “did not induce detectable cytotoxicity”, the cell metabolic activity (cells; exposure to N16 for 24 hr) was “not affected” and the “decrease of cell metabolic activity” value (cells; exposure to N16 for 48 hr, not shown) was “less than 10%”. For the same molecule, the “specific infectivity of the virus” value (HIV-1 NL4-3 [1]) was “diminished in dose-dependent fashion”, the “reduction of virus production” value (HIV-1 NL4-3 [2]; 50 μM N16, Jurkat cells, peak values / after 15 days) was 15 fold and the “time of peak virus production” value (HIV-1 NL4-3 [2]; 50 μM N16, control peaked at day 11) was 13 days. The “resurgence of virus when N16 removed” value (HIV-1 NL4-3 [2]; media without inhibitor, 4 days (day 15 to 19)) was 10 fold, the “reduction of virus on re-addition of N16” value (HIV-1 NL4-3 [2]; re-addition of N16, 4 days (to day 23)) was 50 fold and the “cell viability, trypan blue assay” value (HIV-1 NL4-3 [2]; sustained drug exposure, every 3rd day) was “maintained”. The EC50 (HIV-1 NL4-3 [3]; Human immunodeficiency virus 1, NL43, HEK-293T, 6 h, N16 added six hours before transfection, 293T cells) was 25 to 50 µM, the “effect on budding when added 24 hr post-transfection” value (HIV-1 NL4-3 [3]; addition at 24 hr post-transfection, even at higher concentrations) was “little effect” and the “lowest concentration achieved in tissue culture assays under optimal conditions” value (HIV-1 NL4-3 [3]; c.f. FIG. 15) was 25 to 50 µM.
